Results reported in patent US8895585B2, “Nicotinamide derivative or salt thereof” (FUJIFILM Corporation, priority 2010, dated 2014).
“And” between values parts separate entries of the source, which are not always exact repeats. Equal entries are not always repeated. Where two headings read alike, the source gives them in different places.

What was measured:
[1] = target: T1, glutathione S-transferase (GST)-fused full-length human Syk protein (Homo sapiens, UniProt P43405); experiment: Syk enzyme assay; type: biochemical
T1 construct: (GST)-fused full-length human Syk protein; GST (glutathione S-transferase); purchased Carna Biosciences
Procedure, shortened: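 IC50 values come from a time-resolved FRET readout (615 and 665 nm) of substrate phosphorylation, measured after an EDTA stop and 1 h antibody binding. The kinase reaction ran 40 min at room temperature with 27 μM ATP and 0.4 μM biotin-peptide, following a 15 min compound preincubation with baculovirus-made GST-full-length human Syk.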

[2] = system: THP-1 cells; experiment: TNFα generation assay; type: cell-based, human; settings: Homo sapiens
Procedure, shortened: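 Secreted TNFα in supernatant quantified by ELISA or AlphaLISA after 7 h culture on human IgG-coated wells (10 μg/ml coating). Cells were IFN-γ-differentiated THP-1 (10 ng/ml, 2 days), exposed to compound for 30 min at room temperature before plating.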

[3] = Syk enzyme assay, Test Example 1, read-out: IC50 of Syk-inhibitory activity
[4] = THP-1, THP-1 cells, Table 22, read-out: IC50 in TNFα generation assay

IC50 [1, 3] | IC50 [2, 4] | IC50 ([1]; read-out: Syk-inhibitory activity (IC50)) | IC50 ([2]; THP-1, 7 h, IFN-γ-differentiated THP-1 cells on human IgG-coated plate, cultured 7 hours, read-out: TNFα generation inhibitory activity (IC50)) | Compound
10 to 50 nM | 130 to 200 nM | – | – | NC(=O)c1cc(F)c(NC2CCCCC2N)nc1Nc1cncc(NC(=O)c2cccc(F)c2F)c1 (centres unmarked) [Example 027-030]
< 10 nM | 130 to 200 nM | – | – | NC(=O)c1cc(F)c(NC2CCCCC2N)nc1Nc1cncc(NC(=O)c2ccco2)c1 (centres unmarked) [Example 027-033]
< 10 nM | 65 to 130 nM | – | – | NC(=O)c1cc(Cl)c(NC2CCCCC2N)nc1Nc1cnc2ccccc2c1 (centres unmarked) [Example 035-001]
< 10 nM | 65 to 130 nM | – | – | NC(=O)c1cc(Br)c(NC2CCCCC2N)nc1Nc1cnc2ccccc2c1 (centres unmarked) [Example 035-002]
< 10 nM | 130 to 200 nM | – | – | Cc1cccc(Nc2nc(NC3CCCCC3N)c(Cl)cc2C(N)=O)c1 (centres unmarked) [Example 035-005]
< 10 nM | 65 to 130 nM | – | – | Cc1cncc(Nc2nc(NC3CCCCC3N)c(Br)cc2C(N)=O)c1 (centres unmarked) [Example 035-007]
< 10 nM and 10 to 50 nM | 130 to 200 nM | – | – | Cc1cc(C)cc(Nc2nc(NCCN)c(Br)cc2C(N)=O)c1 [Example 035-009]
< 10 nM | < 65 nM | – | – | NC(=O)c1cc(F)c(N[C@@H]2CCCC[C@@H]2N)nc1Nc1cccc2ncccc12 [Example 37-1, 6-((1R,2S)-2-aminocyclohexylamino)-5-fluoro-2-((quinolin-5-yl)amino)nicotinamide]
< 10 nM | < 65 nM | – | – | NC(=O)c1cc(F)c(N[C@@H]2CCCC[C@@H]2N)nc1Nc1cncc2ccccc12 [Example 37-2, 6-((1R,2S)-2-aminocyclohexylamino)-5-fluoro-2-((isoquinolin-4-yl)amino)nicotinamide]

Further lines, the compound ahead of its results:

Compound | IC50 [1, 3] | IC50 [2, 4] | IC50 ([1]; read-out: Syk-inhibitory activity (IC50)) | IC50 ([2]; THP-1, 7 h, IFN-γ-differentiated THP-1 cells on human IgG-coated plate, cultured 7 hours, read-out: TNFα generation inhibitory activity (IC50))
C[C@@H](Nc1nc(Nc2ccc3ncccc3c2)c(C(N)=O)cc1F)C(N)=O [Example 012-036, (R)-6-((1-amino-1-oxopropan-2-yl)amino)-5-fluoro-2-((quinolin-6-yl)amino)nicotinamide] | 10 to 50 nM | 65 to 130 nM | – | –
C[C@H](N)CNc1nc(Nc2ccc3ncccc3c2)c(C(N)=O)cc1F [Example 13, 6-((2S)-2-aminopropylamino)-5-fluoro-2-(quinolin-6-ylamino)nicotinamide] | – | – | ≤ 1000 nM | ≤ 200 nM
CC(C)C(N)CNc1nc(Nc2ccc3ncccc3c2)c(C(N)=O)cc1F (centres unmarked) [Example 014-002] | < 10 nM | < 65 nM | – | –
NC(=O)c1cc(F)c(NCC(N)c2ccccc2)nc1Nc1ccc2ncccc2c1 (centres unmarked) [Example 014-005] | < 10 nM | < 65 nM | – | –
CC(N)CNc1nc(Nc2ccc3ncccc3c2)c(C(N)=O)cc1F (centres unmarked) [Example 014-009] | < 10 nM | < 65 nM | – | –
NC(=O)c1cc(F)c(NCC(N)C2CC2)nc1Nc1ccc2ncccc2c1 (centres unmarked) [Example 014-013, 6-((2-amino-2-cyclopropylethyl)amino)-5-fluoro-2-((quinolin-6-yl)amino)nicotinamide] | 10 to 50 nM | 130 to 200 nM | – | –
NC(=O)c1cc(F)c(NCC2(N)CC2)nc1Nc1ccc2ncccc2c1 [Example 014-014, 6-((1-aminocyclopropylmethyl)amino)-5-fluoro-2-((quinolin-6-yl)amino)nicotinamide] | < 10 nM | 130 to 200 nM | – | –
NC(=O)c1cc(F)c(NCC(N)C(F)(F)F)nc1Nc1ccc2ncccc2c1 (centres unmarked) [Example 014-016, 6-((2-amino-3,3,3-trifluoropropyl)amino)-5-fluoro-2-((quinolin-6-yl)amino)nicotinamide] | < 10 nM | 65 to 130 nM | – | –
NC(=O)c1cc(F)c(NC[C@@H](N)c2ccccn2)nc1Nc1ccc2ncccc2c1 [Example 014-017, (R)-6-((2-amino-2-(pyridin-2-yl)ethyl)amino)-5-fluoro-2-((quinolin-6-yl)amino)nicotinamide] | < 10 nM | 130 to 200 nM | – | –
NC(=O)c1cc(F)c(NC[C@@H](N)c2ccsc2)nc1Nc1ccc2ncccc2c1 [Example 014-019, (S)-6-((2-amino-2-(thiophene-3-yl)ethyl)-amino)-5-fluoro-2-((quinolin-6-yl)amino)-nicotinamide] | < 10 nM | 65 to 130 nM | – | –
